These results are taken from ChEMBL document CHEMBL1201862, “PubChem BioAssay data set” (2004).

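48-hour exposure; five concentrations; linearly interpolated endpoints. GI50 = concentration required for 50% inhibition of growth.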 The source made the active and inactive calls. No stated cut-off is given here; in the data, active = GI50 up to about 1.1 µM and inactive = higher.

Common to all, as to test: growth of human tumour cells (NCI), 48 h
For assay [1], the system named is RXF 393.
The test system of assay [2] is K562.
Assay [3] deals with 786-0.
Assay [4] relates to UO-31.
In assay [5] the test system is SNB-19.
The subject of assay [6] is HOP-62.
For assay [7], the system named is NCI-H226.
The subject of assay [8] is SN12C.
The subject of assay [9] is SF-295.
Assay [10] has as its system MDA-N.
The test system of assay [11] is MDA-MB-435.
In assay [12] the test system is U-251.
Assay [13] has as its system IGROV-1.
Assay [14] relates to SNB-75.
The subject of assay [15] is MDA-MB-231.
Assay [16] has as its system LOX IMVI.
Assay [17] relates to RPMI-8226.
In assay [18] the test system is SF-268.

With `Nc1ccc(/N=N/c2ccccc2)cc1`, the GI50 in [1] was 20.1 µM (inactive); in assay [2] it was 35.8 µM (inactive); in assay [3], 64.9 µM (inactive); in [4] it was 13.2 µM (inactive); in [5], 84.1 µM (inactive); in assay [6], 42 µM (inactive). Besides, the GI50 in [7] is 25.4 µM (inactive); in assay [8], 69.5 µM (inactive); in assay [9], 22.2 µM (inactive); in assay [10], 60.3 µM (inactive); in assay [11], 56.1 µM (inactive); in assay [12], 46.5 µM (inactive). The GI50 in assay [13] was 29.4 µM (inactive); in assay [14] it was 10.3 µM (inactive); in assay [15] it was 32.7 µM (inactive); in assay [16], 26.7 µM (inactive).
Consider `Cc1nc(N)c(N2CCN(Cc3ccccc3)CC2)c(O)n1`, for which the GI50 in [2], in [3], in assay [4], in assay [5], in assay [17] and in [18] was > 100 µM (inactive) throughout. The GI50 in assay [6], in assay [7], in assay [8], in assay [9], in assay [10] and in assay [11] was > 100 µM (inactive) throughout. Also, the GI50 in assay [12], in [15] and in [16] was > 100 µM (inactive) each time.
With `O=c1[nH]c(=O)n(COCCOCc2ccccc2)cc1Nc1ccccc1`, the GI50 in [1] is > 100 µM (inactive); in assay [2], > 100 µM (inactive); in assay [3], 60.1 µM (inactive); in assay [4], > 100 µM (inactive); in [5], > 100 µM (inactive); in assay [18], > 100 µM (inactive). Besides, the GI50 in assay [6], in assay [7], in assay [8], in assay [9], in assay [10] and in [11] was > 100 µM (inactive) throughout. For the same molecule, the GI50 in [12], in [13], in [14], in [15] and in assay [16] was > 100 µM (inactive) in each case.
Consider `Cc1nc(C)c(N2CCN(CN)CC2)c(O)n1`, for which the GI50 in assay [1] is > 100 µM (inactive); in [2], > 100 µM (inactive); in assay [3] it was 88.7 µM (inactive); in assay [4], > 100 µM (inactive); in assay [5] it was > 100 µM (inactive); in [17], > 100 µM (inactive). The GI50 in assay [18], in assay [6], in [7], in assay [8], in assay [9] and in assay [10] was > 100 µM (inactive) in each case. In addition, the GI50 in assay [11] was > 100 µM (inactive); in [12], 56.8 µM (inactive); in [13] it was > 100 µM (inactive); in [15], > 100 µM (inactive); in assay [16] it was > 100 µM (inactive).
Take `Cn1c(-c2cccs2)cc(-c2ccsc2)c1-c1cccs1`: the GI50 in [1] is > 100 µM (inactive); in assay [2], 75.7 µM (inactive); in [3], > 100 µM (inactive); in assay [4], > 100 µM (inactive); in [5], > 100 µM (inactive); in assay [18], > 100 µM (inactive). For the same molecule, the GI50 in assay [6] is > 100 µM (inactive); in [7], > 100 µM (inactive); in [8], > 100 µM (inactive); in [9], > 100 µM (inactive); in assay [10], 55.3 µM (inactive); in assay [11] it was 57.4 µM (inactive). The GI50 in [12] was > 100 µM (inactive); in assay [13] it was > 100 µM (inactive); in assay [14], 62.1 µM (inactive); in [15], 99.1 µM (inactive).
Consider `C=C1C(OC2O[C@@H]3O[C@@]4(C)CC[C@H]5[C@H](C)CC[C@@H](C2=C)[C@@]35O4)O[C@@H]2O[C@@]3(C)CC[C@H]4[C@H](C)CC[C@@H]1[C@@]24O3` (stereo partly specified), for which the GI50 in assay [1], in assay [2], in assay [3], in assay [4], in assay [5] and in assay [17] was > 50 µM (inactive) each time. The GI50 in [18], in [6], in assay [7], in assay [8], in assay [9] and in assay [10] was > 50 µM (inactive) throughout. Besides, the GI50 in [11], in assay [12], in [13], in [15] and in [16] was > 50 µM (inactive) each time.
Take `CC(=O)NC1C(OCc2ccccc2)OC(CO)C(O)C1OCC(=O)N[C@@H](C)C(=O)N[C@H](CCC(=O)NCCNc1ccc([N+](=O)[O-])c2[nH]c3ccccc3c(=O)c12)C(N)=O` (stereo partly specified): the GI50 in assay [2] was 58.9 µM (inactive); in assay [3], 18.7 µM (inactive); in assay [4], 13.8 µM (inactive); in [5] it was 23 µM (inactive); in assay [17], 23 µM (inactive); in assay [6], 36.3 µM (inactive). The GI50 in [7] was 12.8 µM (inactive); in assay [8], 27.4 µM (inactive); in assay [9], 37.4 µM (inactive); in [10], 27.9 µM (inactive); in assay [11], 22.4 µM (inactive); in [12], 29.5 µM (inactive). Besides, the values for the GI50 in [14], in [15] and in [16] were 22.8 µM (inactive), 28.1 µM (inactive) and 25.9 µM (inactive), respectively.
As to `O=[N+]([O-])c1cccc(/C=N/N=c2\ccc3ccccc3[nH]2)c1O`, the GI50 in assay [1] was 2.07 µM (inactive); in [2], 1.35 µM (inactive); in assay [3], 0.658 µM (active); in [4], 0.335 µM (active); in [5] it was 4.92 µM (inactive); in [17], 1.37 µM (inactive). In addition, the GI50 was 1.14 µM (inactive) in assay [18]; 0.815 µM (active) in assay [6]; 2.64 µM (inactive) in assay [7]; 1.53 µM (inactive) in assay [8]; 1.01 µM (active) in assay [9]; 5.64 µM (inactive) in [10]. Further, the GI50 in assay [11] is 2.45 µM (inactive); in [12], 1.11 µM (active); in assay [13], 2.02 µM (inactive); in assay [15] it was 2.78 µM (inactive); in assay [16], 1.47 µM (inactive).
Consider `CN(C)/C=C/C=C(/C=N/S(=O)(=O)C(F)(F)F)C1C=CN(S(=O)(=O)C(F)(F)F)C=C1`, for which the GI50 in assay [2] is 37.8 µM (inactive); in assay [3], 45.8 µM (inactive); in assay [4], 29.1 µM (inactive); in [17], 38.3 µM (inactive); in assay [18], 48.5 µM (inactive); in assay [6], 39.4 µM (inactive). Also, the GI50 in [7] was 26 µM (inactive); in [8], 40.6 µM (inactive); in assay [9] it was 38.2 µM (inactive); in [10] it was 36.7 µM (inactive); in assay [11], 25.8 µM (inactive); in assay [12], 37.6 µM (inactive). Moreover, the GI50 in [13] was 54.3 µM (inactive); in assay [14], 16.6 µM (inactive); in [15], 31.1 µM (inactive); in [16], 42.8 µM (inactive).
`Cc1cn(C2CC(OC(c3ccccc3)(c3ccccc3)c3ccccc3)C(COC(c3ccccc3)(c3ccccc3)c3ccccc3)O2)c(=O)[nH]c1=O` (stereo unspecified): the GI50 is 30 µM (inactive) in assay [1]; 38.6 µM (inactive) in assay [2]; > 100 µM (inactive) in assay [3]; 45.6 µM (inactive) in [4]; 11.7 µM (inactive) in [5]; 99.8 µM (inactive) in assay [18]. Also, the GI50 in assay [6] was > 100 µM (inactive); in assay [7] it was 26.1 µM (inactive); in [8], 53.6 µM (inactive); in assay [9], > 100 µM (inactive); in assay [10] it was 31.8 µM (inactive); in assay [11] it was 26.2 µM (inactive). Besides, the GI50 in assay [13] is > 100 µM (inactive); in assay [14], 58.7 µM (inactive); in assay [15], 37.7 µM (inactive); in assay [16], 60 µM (inactive).
In the case of `CC(=O)OC12OC(C)(C3C(=O)N(c4ccccc4)C(=O)C31)N(c1ccccc1)C2=O` (stereo unspecified), the GI50 in assay [1], in assay [2], in assay [3], in [4], in assay [5] and in [18] was > 100 µM (inactive) throughout. Further, the GI50 in [6], in assay [7], in [8], in assay [9], in assay [10] and in [11] was > 100 µM (inactive) in each case. In addition, the GI50 in assay [12], in [13], in assay [14], in [15] and in assay [16] was > 100 µM (inactive) throughout.
Turning to `COc1nc(C#CC2(O)CCCCC2)nc(OC)n1`, the GI50 in [1] is 12.9 µM (inactive); in [2], 6.49 µM (inactive); in assay [3], 22.9 µM (inactive); in [4] it was 3.82 µM (inactive); in [5], 38.7 µM (inactive); in [17], 2.88 µM (inactive). In addition, the GI50 in assay [18] is 14.3 µM (inactive); in [6], 34.2 µM (inactive); in assay [8], 12.4 µM (inactive); in assay [9] it was 18 µM (inactive); in [10], 10.9 µM (inactive); in assay [11], 5.82 µM (inactive). The GI50 is 12.4 µM (inactive) in [12]; 11.1 µM (inactive) in assay [13]; 19.4 µM (inactive) in assay [14]; 3.34 µM (inactive) in assay [15]; 2.83 µM (inactive) in [16].
